The test concerns the target T1, human recombinant adenosine A3 receptors (Homo sapiens, UniProt P0DMS8).
T1 construct: host or cells: CHO-K1 (Chinese hamster ovary K1 cells)
T1 sequence (P0DMS8 1-318): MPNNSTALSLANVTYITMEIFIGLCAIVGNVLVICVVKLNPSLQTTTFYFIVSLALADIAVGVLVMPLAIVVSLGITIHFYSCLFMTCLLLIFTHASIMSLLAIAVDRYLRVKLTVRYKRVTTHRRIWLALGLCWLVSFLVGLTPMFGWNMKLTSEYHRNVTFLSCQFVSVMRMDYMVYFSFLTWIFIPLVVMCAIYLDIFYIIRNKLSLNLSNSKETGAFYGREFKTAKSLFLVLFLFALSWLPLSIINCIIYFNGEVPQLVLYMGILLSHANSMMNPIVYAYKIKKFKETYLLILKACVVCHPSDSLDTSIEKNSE
Put plainly: Test for affinity for adenosine A3 receptor ([125I]AB-MECA binding to CHO-K1 cell membranes). The note with it: for Affinity 3 μM: 3 μM trehalose compound; for Affinity 3 μM / Affinity 10 μM: 0.5 nM [125I]AB-MECA, 60 min, 25° C.; for Affinity 10 μM: 10 μM trehalose compound; for IC50: [125I]AB-MECA displacement. The procedure:
Specifically, ovarium K1 cells of a Chinese hamster (obtained from Euroscreen S. A.; hereunder referred to as “CHO-K1”) expressing human recombinant adenosine A3 receptors were cultured in a modified HEPES buffer free of Ca^2+ and Mg^2+. Subsequently, the cultured CHO-K1 was scraped and homogenized in 50 mM of ice-cooled Tris-HCl (pH 7.4). The resulting mixture was subjected to centrifugation at 48,000×g for 15 minutes to obtain a cell membrane pellet. The obtained cell membrane pellet was washed twice with another modified HEPES buffer, and then subjected again to centrifugation. The washed cell membrane pellet was suspended again in a small quantity of 50 mM Tris-HCl (pH 7.4).
The concentration of the adenosine A3 receptor in the obtained cell membrane pellet was measured as follows. A 0.5 nM amount of [^125I] […] Thereafter, 50 mM of ice-cooled Tris-HCl (pH 7.4) was added thereto to halt the reaction, and then the cell membrane pellet was filtrated out using a glass fiber filter. The filtered cell membrane pellet was washed 3 times with an ice-cooled buffer so as to remove excessive ligands. The radioactivity in the resulting cell membrane pellet on a filter was measured using a scintillation counter (Type 1470 Automatic Counter; PerkinElmer, Inc.).
Separately, in order to measure nonspecific bindings of [^125I] AB-MECA other than to an adenosine A3 receptor, 1 μM of […] (a selective radioagonist of A3 receptor N^6-(3-iodobenzyl)-5′-(N-[…]) adenosine) was further added to the obtained suspension of the cell membrane pellet, and the same measurement was carried out as in the aforesaid binding experiment. The average specific binding value of [^125I] AB-MECA to the adenosine A3 receptor was calculated based on the results obtained in the above experiment.
Further, in a Comparative Example, the same measurement was carried out with respect to the compounds taught in Non-Patent Document 1 and Non-Patent Document 2 (in the chemical formula of Table 1, R^1=R^3=octyl, R^2=R^4=heptyl, X=X′=OH, and Y=Y′═O).

On to `CCCCCCCC(CCCCC)C(=O)OC[C@H]1O[C@H](O[C@H]2O[C@H](COC(=O)C(CCCCC)CCCCCCC)[C@@H](O)[C@H](O)[C@H]2O)[C@H](O)[C@@H](O)[C@@H]1O` (stereo partly drawn) [Production Example F-11, 6,6′-bis-O-(2-pentylnonanoyl)-α,α′-trehalose], for which the “Affinity 3 μM” value is 74 and the “Affinity 10 μM” value was 62.
On the same counts, the results for `CCCCCCC(OC)C(CCCCC)C(=O)OCC1OC(OC2OC(COC(=O)C(CCCCC)C(CCCCCC)OC)C(O)C(O)C2O)C(O)C(O)C1O` [Production Example F-7, 6,6′-bis-O-[(2R,3R)-3-methoxy-2-pentylnonanoyl]-α,α′-trehalose] are 84 and 96.
On the same counts, the results for `CCCCCC[C@H](O)[C@@H](CCCCC)C(=O)OC[C@H]1O[C@H](O[C@H]2O[C@H](COC(=O)[C@H](CCCCC)[C@@H](O)CCCCCC)[C@@H](O)[C@H](O)[C@H]2O)[C@H](O)[C@@H](O)[C@@H]1O` [Production Example F-3, 6,6′-bis-O-[(2R,3S)-3-hydroxy-2-pentylnonanoyl]-α,α′-trehalose] are 59 and 100.
On the same counts, the results for `CCCCCCCC(CCCCC)C(=O)NCC1OC(OC2OC(CNC(=O)C(CCCCC)CCCCCCC)C(O)C(O)C2O)C(O)C(O)C1O` (stereo not drawn) [Production Example F-18, 6,6′-bis-N-(2-pentylnonanoylamino)-6,6′-dideoxy-α,α′-trehalose] are 33 and 89.
`CCCCCCCC(O)C(CCCCCC)C(=O)OCC1OC(OC2OC(COC(=O)C(CCCCCC)C(O)CCCCCCC)C(O)C(O)C2O)C(O)C(O)C1O` [Production Example F-6, 6,6′-bis-O-[(2S,3S)-2-hexyl-3-hydroxydecanoyl]-α,α′-trehalose]: for the setting “listed as F-6”, the “Affinity 10 μM” value was 59.
In the case of `CCCCCCCCC(O)C(CCCCCCC)C(=O)OCC1O[C@H](O[C@@H]2OC(COC(=O)C(CCCCCCC)C(O)CCCCCCCC)[C@@H](O)C(O)C2O)C(O)C(O)[C@@H]1O` (some centres unmarked) [Comparative Example, reference compound], the “Affinity 10 μM” value is on record as 29.
As for `CCCCCCC(CCCCCC)C(=O)NCC1OC(OC2OC(CNC(=O)C(CCCCCC)CCCCCC)C(O)C(O)C2O)C(O)C(O)C1O` (stereo not drawn) [Production Example F-17, 6,6′-bis-N-(2-hexyloctanoylamino)-6,6′-dideoxy-α,α′-trehalose], the “Affinity 3 μM” value worked out at 22.
With `CCCCCC[C@@H](O)[C@@H](CCCCC)C(=O)NC[C@H]1O[C@H](O[C@H]2O[C@H](CNC(=O)[C@H](CCCCC)[C@H](O)CCCCCC)[C@@H](O)[C@H](O)[C@H]2O)[C@H](O)[C@@H](O)[C@@H]1O` [Production Example F-15, 6,6′-bis-N-[(2R,3R)-3-hydroxy-2-pentylnonanoylamino]-6,6′-dideoxy-α,α′-trehalose], the “Affinity 3 μM” value is on record as 29 and the “Affinity 10 μM” value is given as 69.
In general, IC50 refers to the concentration at which inhibition is half-maximal. For the compound `CCCCCC[C@@H](O)[C@@H](CCCCC)C(=O)OC[C@H]1O[C@H](O[C@H]2O[C@H](COC(=O)[C@@H](CCCCC)[C@@H](O)CCCCCC)[C@@H](O)[C@H](O)[C@H]2O)[C@H](O)[C@@H](O)[C@@H]1O` [Production Example F-13, 6-O-[(2R,3R)-3-hydroxy-2-pentylnonanoyl]-6′-O-[(2S,3S)-3-hydroxy-2-pentylnonanoyl]-α,α′-trehalose], the “Affinity 3 μM” value is reported as 54, the “Affinity 10 μM” value was 97 and the IC50 turned out to be 2750 nM.
The corresponding values for `CCCCCC[C@@H](O)[C@@H](CCCCC)C(=O)OC[C@H]1O[C@H](O[C@H]2O[C@H](COC(=O)[C@H](CCCCC)[C@H](O)CCCCCC)[C@@H](O)[C@H](O)[C@H]2O)[C@H](O)[C@@H](O)[C@@H]1O` [Production Example F-1, 6,6′-bis-O-[(2R,3R)-3-hydroxy-2-pentylnonanoyl]-α,α′-trehalose] are 56, 97 and 2610 nM.
`CCCCC[C@@H](O)[C@@H](CCCC)C(=O)OC[C@H]1O[C@H](O[C@H]2O[C@H](COC(=O)[C@@H](CCCC)[C@@H](O)CCCCC)[C@@H](O)[C@H](O)[C@H]2O)[C@H](O)[C@@H](O)[C@@H]1O` [Production Example F-12, 6-O-[(2R,3R)-2-butyl-3-hydroxyoctanoyl]-6′-O-[(2S,3S)-2-butyl-3-hydroxyoctanoyl]-α,α′-trehalose]: the “Affinity 10 μM” value turned out to be 48.
As to `CCCCCCC(CCCCCC)C(=O)OCC1OC(OC2OC(COC(=O)C(CCCCCC)CCCCCC)C(O)C(O)C2O)C(O)C(O)C1O` (stereo not drawn) [Production Example F-10, 6,6′-bis-O-(2-hexyloctanoyl)-α,α′-trehalose], the “Affinity 3 μM” value was 65 and the “Affinity 10 μM” value is 66.
Take `CCCCCCCC(O)C(CCCCCC)C(=O)OCC1OC(OC2OC(COC(=O)C(CCCCCC)C(O)CCCCCCC)C(O)C(O)C2O)C(O)C(O)C1O` [Production Example F-5, 6,6′-bis-O-[(2R,3R)-2-hexyl-3-hydroxydecanoyl]-α,α′-trehalose]: the “Affinity 10 μM” value (listed as F-5) is on record as 83.
In the case of `CCCCCC[C@@H](O)[C@H](CCCCC)C(=O)OC[C@H]1O[C@H](O[C@H]2O[C@H](COC(=O)[C@@H](CCCCC)[C@H](O)CCCCCC)[C@@H](O)[C@H](O)[C@H]2O)[C@H](O)[C@@H](O)[C@@H]1O` [Production Example F-4, 6,6′-bis-O-[(2S,3R)-3-hydroxy-2-pentylnonanoyl]-α,α′-trehalose], the “Affinity 3 μM” value is given as 32 and the “Affinity 10 μM” value is 91.
On to `CCCCCCC[C@@H](O)[C@@H](CCCCCC)C(=O)OC[C@H]1O[C@H](O[C@H]2O[C@H](COC(=O)[C@@H](CCCCCC)[C@@H](O)CCCCCCC)[C@@H](O)[C@H](O)[C@H]2O)[C@H](O)[C@@H](O)[C@@H]1O` [Production Example F-14, 6-O-[(2R,3R)-3-hydroxy-2-hexyldecanoyl]-6′-O-[(2S,3S)-3-hydroxy-2-hexyldecanoyl]-α,α′-trehalose], for which the “Affinity 10 μM” value was 77.
As to `CCCCC(CCCC)C(=O)OC[C@H]1O[C@H](O[C@H]2O[C@H](COC(=O)C(CCCC)CCCC)[C@@H](O)[C@H](O)[C@H]2O)[C@H](O)[C@@H](O)[C@@H]1O` [Production Example F-8, 6,6′-bis-O-(2-butylhexanoyl)-α,α′-trehalose], the “Affinity 3 μM” value is reported as 14 and the “Affinity 10 μM” value came out at 72.
In the case of `CCCCCC[C@H](O)[C@H](CCCCC)C(=O)OC[C@H]1O[C@H](O[C@H]2O[C@H](COC(=O)[C@@H](CCCCC)[C@@H](O)CCCCCC)[C@@H](O)[C@H](O)[C@H]2O)[C@H](O)[C@@H](O)[C@@H]1O` [Production Example F-2, 6,6′-bis-O-[(2S,3S)-3-hydroxy-2-pentylnonanoyl]-α,α′-trehalose], the “Affinity 3 μM” value worked out at 57 and the “Affinity 10 μM” value was determined as 86.
On the same counts, the results for `CCCCCCC(OC)C(CCCCC)C(=O)NCC1OC(OC2OC(CNC(=O)C(CCCCC)C(CCCCCC)OC)C(O)C(O)C2O)C(O)C(O)C1O` [Production Example F-16, 6,6′-bis-N-[(2R,3R)-3-methoxy-2-pentylnonanoylamino]-6,6′-dideoxy-α,α′-trehalose] are 57 and 96.
For the compound `CCCCCC(CCCCC)C(=O)OC[C@H]1O[C@H](O[C@H]2O[C@H](COC(=O)C(CCCCC)CCCCC)[C@@H](O)[C@H](O)[C@H]2O)[C@H](O)[C@@H](O)[C@@H]1O` [Production Example F-9, 6,6′-bis-O-(2-pentylheptanoyl)-α,α′-trehalose], the “Affinity 3 μM” value worked out at 97, the “Affinity 10 μM” value came out at 99 and the IC50 is 459 nM.
